In US20160331779A1 (priority 2015, published 2016):
“And” between values parts separate entries of the source, which are not always exact repeats. Equal entries are not always repeated. Where two headings read alike, the source gives them in different places.

Key:
[1] = test system: streptokinase enzyme from S. pyogenes; assay: streptokinase inactivation, clot formation enzymatic assay; type: biochemical; details: streptokinase 175 U/mL incubated 1 hour; fibrin remained insoluble, glass bead remained at top
Protocol: Inactivation of streptokinase was determined by clot formation enzymatic assay (Sigma Aldrich, St. Louis, Mo.), whereby thrombin converts the soluble fibrinogen into […] (Crew 2013). In the presence of streptokinase enzyme from S. pyogenes, the insoluble fibrin is converted into soluble fibrin fragments. Several hours before the study, streptokinase 175 U/mL) was incubated with the irrigation solution for 1 hour, followed by inactivation of excess irrigation solution by adding an equal volume of 20 mM methionine for 1 hour at room temperature.
In a separate glass tube, fibrinogen solution containing borate buffer, gelatin diluent, and plasminogen were mixed by swirling, and then equilibrated at 37° C. for 3 minutes. Irrigation solution and methionine treated streptokinase was added to the solution, mixed by swirling, and equilibrated at 37° C. for 1 minute prior to the addition of thrombin. The solution was mixed by swirling and equilibrated at 37° C. for approximately 2-3 minutes to allow for clot formation. A 4 mm glass bead was added to the top of the reaction mixture, and the time for the glassbead to touch the bottom of the tube was observed. In this clot assay, 0.001 μg/mL of the hypochlorous acid completely inactivated streptokinase, causing the fibrin to remain insoluble in solution, and the glass bead to remain at the top of the reaction mixture.

A549 cells = details: pH 4
[2] = target: alpha-hemolysin toxin of S. aureus (Staphylococcus aureus, UniProt P09616); type: cell-based
[3] = test system: root canal microorganisms; details: 2.5% NaOCl, after biomechanical preparation; cited from earlier work
[4] = 2.5% NaOCl, cited from earlier work
Aspergillus flavus = details: added to the fungal growth medium prior to inoculation; cited from earlier work

Sequence of alpha-hemolysin toxin of S. aureus (P09616 27-319 limits assumed): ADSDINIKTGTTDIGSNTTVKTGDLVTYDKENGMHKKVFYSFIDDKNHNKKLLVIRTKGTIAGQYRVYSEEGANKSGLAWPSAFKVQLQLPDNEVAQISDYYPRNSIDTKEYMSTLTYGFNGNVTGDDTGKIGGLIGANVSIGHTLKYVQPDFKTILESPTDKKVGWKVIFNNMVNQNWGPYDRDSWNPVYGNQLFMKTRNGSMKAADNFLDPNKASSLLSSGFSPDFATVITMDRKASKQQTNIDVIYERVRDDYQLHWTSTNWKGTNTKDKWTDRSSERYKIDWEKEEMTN

SMILES | concentration that completely inactivated streptokinase [1] [µg/mL] | Dilution of wound exudate cytotoxic to A549 cells (A549 cells) | EC50 [2] | root canal microorganisms eliminated [3] [%] | endotoxins reduced ([4]; 7 days after biomechanical preparation) [%] | endotoxins reduced ([4]; immediately after biomechanical preparation) [%] | NaOCl concentration that completely inhibited the fungal growth (Aspergillus flavus) [mM]
OCl [HOCl, hypochlorous acid] | 0.001 | 1:4 |  |  |  |  | 
[Na+].[O-]Cl [hypochlorite, sodium hypochlorite] |  |  | 0.95 ± 0.18 µg/mL and 0.99 ± 0.06 µg/mL | 100 | 83.2 | 88.8 | 2.8
